In this assay the target is T1, mouse VISTA (mVISTA) (Mus musculus, UniProt Q9D659).
T1 construct: expressed in transfected cells; host or cells: Human embryonic kidney 293T cells
T1 sequence (Q9D659 33-308): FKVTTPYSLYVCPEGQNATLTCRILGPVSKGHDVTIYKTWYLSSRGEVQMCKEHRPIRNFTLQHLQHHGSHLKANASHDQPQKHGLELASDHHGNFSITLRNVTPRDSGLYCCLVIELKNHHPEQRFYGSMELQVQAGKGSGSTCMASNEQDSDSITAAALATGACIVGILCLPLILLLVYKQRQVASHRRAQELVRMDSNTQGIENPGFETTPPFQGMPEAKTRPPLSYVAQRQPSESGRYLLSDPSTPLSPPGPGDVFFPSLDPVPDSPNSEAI
The assay can be described thus: Cell-Based Binding High-Content Assay For mVISTA (HC CBA mVISTA). Conditions: read-out: HC CBA mVISTA IC50. In short, it runs like this: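 Competition of compound with a biotinylated peptide (final 2 nM, 30 min at RT) for binding to mVISTA on 293T cells, run under no-wash or wash (1 h compound preincubation then removal) formats. Readout by Alexa 647–streptavidin imaging on a high-content platform; four-parameter logistic fit gave IC50.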

Setting [1] is: cell-based binding high-content assay, mVISTA, the 15th table.

SMILES strings stand for the structures. Where two headings read alike, the source gives them in different places. Positions of bridges follow the written chain, without caps; N, C: chain ends. Non-standard residues stand in square brackets, D forms with d. Residues, ends and D or L forms follow the SMILES beside them. ξ: configuration not given here. NMeW = CN[C@@H](Cc1c[nH]c2ccccc12)C(=O)O; Phe(3-Me) = Cc1cccc(C[C@H](N)C(=O)O)c1; 2Nal = N[C@@H](Cc1ccc2ccccc2c1)C(=O)O; NMeR = CN[C@@H](CCCNC(=N)N)C(=O)O; Ahp(2) = CCCCC[C@H](N)C(=O)O; NMeNle = CCCC[C@H](NC)C(=O)O; NMeV = CN[C@H](C(=O)O)C(C)C; NMeS = CN[C@@H](CO)C(=O)O; NHexGly = CCCCCCNCC(=O)O; Nle = CCCC[C@H](N)C(=O)O; Orn = NCCC[C@H](N)C(=O)O; ξD = NC(CC(=O)O)C(=O)O

For orientation: IC50 means the concentration at which inhibition is half-maximal. As for `CCCCCCN1CC(=O)N[C@@H](Cc2ccc(O)cc2)C(=O)N[C@@H](CCCCC)C(=O)N[C@@H](CC(N)=O)C(=O)N[C@@H](CCCNC(=N)N)C(=O)N(C)[C@@H](CCCC)C(=O)N[C@@H](CCCCC)C(=O)N2CCC[C@H]2C(=O)N[C@@H](C(C)C)C(=O)N[C@@H](CC(=O)O)C(=O)N[C@H](C(=O)N[C@@H](CO)C(N)=O)CSCC(=O)N[C@@H](Cc2ccc3ccccc3c2)C(=O)N[C@@H](Cc2c[nH]c3ccccc23)C(=O)N[C@@H](CC(=O)O)C1=O` [compound 1254] ({CH2CO}-[2Nal]WD[NHexGly]Y[Ahp(2)]NR[NMeNle][Ahp(2)]PVDCS-NH2; thioether N-14), the 50% inhibitory concentration (IC50) under setting [1] was 15.7 nM.
On to `CCCCCCN1CC(=O)N[C@@H](Cc2ccc(O)cc2)C(=O)N[C@@H](CCCC)C(=O)N[C@@H](CC(N)=O)C(=O)N[C@@H](CCCNC(=N)N)C(=O)N(C)[C@@H](CCCC)C(=O)N[C@@H](CCCCC)C(=O)N2CCC[C@H]2C(=O)N[C@@H](C(C)C)C(=O)N[C@@H](CC(=O)O)C(=O)N[C@H](C(=O)N[C@@H](CO)C(=O)O)CSCC(=O)N[C@@H](Cc2ccc3ccccc3c2)C(=O)N[C@@H](Cc2c[nH]c3ccccc23)C(=O)N[C@@H](CC(=O)O)C1=O` [compound 1255] ({CH2CO}-[2Nal]WD[NHexGly]Y[Nle]NR[NMeNle][Ahp(2)]PVDCS-OH; thioether N-14), for which, under setting [1], the IC50 worked out at 13.1 nM.
Take `CCCCCCN1CC(=O)N[C@@H](Cc2ccc(O)cc2)C(=O)N[C@@H](CCCC)C(=O)N[C@@H](CC(=O)O)C(=O)N[C@@H](CCCN)C(=O)N(C)[C@@H](CCCC)C(=O)N[C@@H](CCCCC)C(=O)N2CCC[C@H]2C(=O)N[C@@H](C(C)C)C(=O)N[C@@H](CC(=O)O)C(=O)N[C@H](C(=O)N[C@@H](CO)C(N)=O)CSCC(=O)N[C@@H](Cc2ccc3ccccc3c2)C(=O)N[C@@H](Cc2c[nH]c3ccccc23)C(=O)N[C@@H](CC(=O)O)C1=O` [compound 1256] ({CH2CO}-[2Nal]WD[NHexGly]Y[Nle]D[Orn][NMeNle][Ahp(2)]PVDCS-NH2; thioether N-14): under setting [1], the half-maximal inhibitory concentration (IC50) turned out to be 12.9 nM.
For `CCCCCCN1CC(=O)N[C@@H](Cc2ccc(O)cc2)C(=O)N[C@@H](CCCC)C(=O)N[C@@H](CC(=O)O)C(=O)N[C@@H](CCCNC(=N)N)C(=O)N(C)[C@@H](CCCC)C(=O)N[C@@H](CCCCC)C(=O)N2CCC[C@H]2C(=O)N[C@@H](C(C)C)C(=O)N[C@@H](CC(=O)O)C(=O)N[C@H](C(=O)N[C@@H](CO)C(N)=O)CSCC(=O)N[C@@H](Cc2ccc3ccccc3c2)C(=O)N[C@@H](Cc2c[nH]c3ccccc23)C(=O)N[C@@H](CC(=O)O)C1=O` [compound 1257] ({CH2CO}-[2Nal]WD[NHexGly]Y[Nle]DR[NMeNle][Ahp(2)]PVDCS-NH2; thioether N-14), the IC50 under setting [1] is 11.3 nM.
As for `CCCCCCN1CC(=O)N[C@@H](Cc2ccc(O)cc2)C(=O)N[C@@H](CCCC)C(=O)N[C@@H](CC(N)=O)C(=O)N[C@@H](CCCNC(=N)N)C(=O)N(C)[C@@H](CCCNC(=N)N)C(=O)N[C@@H](CCCCC)C(=O)N2CCC[C@H]2C(=O)N[C@@H](C(C)C)C(=O)N[C@@H](CC(=O)O)C(=O)N[C@H](C(=O)NCC(=O)O)CSCC(=O)N[C@@H](Cc2ccc3ccccc3c2)C(=O)N[C@@H](Cc2c[nH]c3ccccc23)C(=O)N[C@@H](CC(=O)O)C1=O` [compound 1258] ({CH2CO}-[2Nal]WD[NHexGly]Y[Nle]NR[NMeR][Ahp(2)]PVDCG-OH; thioether N-14), the concentration for half-maximal inhibition (IC50) under setting [1] came to 12 nM.
In the case of `CCCCCCN1CC(=O)N[C@@H](Cc2ccc(O)cc2)C(=O)N[C@@H](CCCC)C(=O)N[C@@H](CC(N)=O)C(=O)N[C@@H](CCCNC(=N)N)C(=O)N(C)[C@@H](CO)C(=O)N[C@@H](CCCCC)C(=O)N2CCC[C@H]2C(=O)N[C@@H](C(C)C)C(=O)N[C@@H](CC(=O)O)C(=O)N[C@H](C(=O)NCC(=O)O)CSCC(=O)N[C@@H](Cc2ccc3ccccc3c2)C(=O)N[C@@H](Cc2c[nH]c3ccccc23)C(=O)N[C@@H](CC(=O)O)C1=O` [compound 1259] ({CH2CO}-[2Nal]WD[NHexGly]Y[Nle]NR[NMeS][Ahp(2)]PVDCG-OH; thioether N-14), the IC50 under setting [1] came out at 8 nM.
With `CCCCCCN1CC(=O)N[C@@H](Cc2ccc(O)cc2)C(=O)N[C@@H](CCCC)C(=O)N[C@@H](CC(N)=O)C(=O)N[C@@H](CCCNC(=N)N)C(=O)N(C)[C@@H](C(C)C)C(=O)N[C@@H](CCCCC)C(=O)N2CCC[C@H]2C(=O)N[C@@H](C(C)C)C(=O)N[C@@H](CC(=O)O)C(=O)N[C@H](C(=O)NCC(=O)O)CSCC(=O)N[C@@H](Cc2ccc3ccccc3c2)C(=O)N[C@@H](Cc2c[nH]c3ccccc23)C(=O)N[C@@H](CC(=O)O)C1=O` [compound 1260] ({CH2CO}-[2Nal]WD[NHexGly]Y[Nle]NR[NMeV][Ahp(2)]PVDCG-OH; thioether N-14), under setting [1], the IC50 was 9.4 nM.
On the same count and under the same terms, under `CCCCCCN1CC(=O)N[C@@H](Cc2ccc(O)cc2)C(=O)N[C@@H](CCCC)C(=O)N[C@@H](CC(N)=O)C(=O)N[C@@H](CCCNC(=N)N)C(=O)N(C)[C@@H](Cc2c[nH]c3ccccc23)C(=O)N[C@@H](CCCCC)C(=O)N2CCC[C@H]2C(=O)N[C@@H](C(C)C)C(=O)N[C@@H](CC(=O)O)C(=O)N[C@H](C(=O)NCC(=O)O)CSCC(=O)N[C@@H](Cc2ccc3ccccc3c2)C(=O)N[C@@H](Cc2c[nH]c3ccccc23)C(=O)N[C@@H](CC(=O)O)C1=O` [compound 1261] ({CH2CO}-[2Nal]WD[NHexGly]Y[Nle]NR[NMeW][Ahp(2)]PVDCG-OH; thioether N-14) stands 11.7 nM; under `CCCCCCN1CC(=O)N[C@@H](Cc2ccc(O)cc2)C(=O)N[C@@H](CC(C)C)C(=O)NCC(=O)N[C@@H](CCCNC(=N)N)C(=O)N[C@@H](Cc2ccc(O)cc2)C(=O)N[C@@H](CCCCC)C(=O)N2CCC[C@H]2C(=O)N[C@@H](C(C)C)C(=O)N[C@@H](CC(=O)O)C(=O)N[C@H](C(=O)NCC(=O)O)CSCC(=O)N[C@@H](Cc2ccc3ccccc3c2)C(=O)N[C@@H](Cc2c[nH]c3ccccc23)C(=O)N[C@@H](CC(=O)O)C1=O` [compound 1263] ({CH2CO}-[2Nal]WD[NHexGly]YLGRY[Ahp(2)]PVDCG-OH; thioether N-14), 20 nM; under `CCCCCCN1CC(=O)N[C@@H](Cc2ccc(O)cc2)C(=O)N[C@@H](CC(C)C)C(=O)NCC(=O)N[C@@H](CCCNC(=N)N)C(=O)N[C@@H](Cc2ccc(O)cc2)C(=O)N[C@@H](CCCCC)C(=O)N2CCC[C@H]2C(=O)N[C@@H](C(C)C)C(=O)N[C@@H](CC(=O)O)C(=O)N[C@H](C(=O)NCC(N)=O)CSCC(=O)N[C@@H](Cc2ccc3ccccc3c2)C(=O)N[C@@H](Cc2c[nH]c3ccccc23)C(=O)N[C@@H](CC(=O)O)C1=O` [compound 1264] ({CH2CO}-[2Nal]WD[NHexGly]YLGRY[Ahp(2)]PVDCG-NH2; thioether N-14), 28.4 nM.
In the case of `CCCCCCN1CC(=O)N[C@@H](Cc2ccc(O)cc2)C(=O)N[C@@H](C(C)C)C(=O)NCC(=O)N[C@@H](CCCNC(=N)N)C(=O)N[C@@H](CC(C)C)C(=O)N[C@@H](CCCCC)C(=O)N2CCC[C@H]2C(=O)N[C@@H](C(C)C)C(=O)N[C@@H](CC(=O)O)C(=O)N[C@H](C(=O)NCC(N)=O)CSCC(=O)N[C@@H](Cc2ccccc2)C(=O)N[C@@H](Cc2ccc3ccccc3c2)C(=O)N[C@@H](CC(=O)O)C1=O` [compound 1324] ({CH2CO}-F[2Nal]D[NHexGly]YVGRL[Ahp(2)]PVDCG-NH2; thioether N-14), the IC50 amounted to 48.2 nM.
With `CCCCCCN1CC(=O)N[C@@H](Cc2ccc(O)cc2)C(=O)N[C@@H](CCCCC)C(=O)NCC(=O)N[C@@H](CCCNC(=N)N)C(=O)N[C@@H](CC(C)C)C(=O)N[C@@H](CCCCC)C(=O)N2CCC[C@H]2C(=O)N[C@@H](C(C)C)C(=O)N[C@@H](CO)C(=O)N[C@H](C(=O)NCC(N)=O)CSCC(=O)N[C@@H](Cc2ccccc2)C(=O)N[C@@H](Cc2ccccc2)C(=O)N[C@@H](CC(=O)O)C1=O` [compound 1325] ({CH2CO}-FFD[NHexGly]Y[Ahp(2)]GRL[Ahp(2)]PVSCG-NH2; thioether N-14), the IC50 was determined as 24.3 nM.
`CCCCCCN1CC(=O)N[C@@H](Cc2ccc(O)cc2)C(=O)N[C@@H](CCCC)C(=O)N[C@@H](CC(=O)O)C(=O)N[C@@H](CCCN)C(=O)N[C@@H](CC(C)C)C(=O)N[C@@H](CCCCC)C(=O)N2CCC[C@H]2C(=O)N[C@@H](C(C)C)C(=O)N[C@@H](CC(=O)O)C(=O)N[C@H](C(=O)NC(CC(=O)O)C(N)=O)CSCC(=O)N[C@@H](Cc2ccccc2)C(=O)N[C@@H](Cc2cccc(C)c2)C(=O)N[C@@H](CC(=O)O)C1=O` (stereo partly drawn) [compound 1326] ({CH2CO}-F[Phe(3-Me)]D[NHexGly]Y[Nle]D[Orn]L[Ahp(2)]PVDC[ξD]-NH2; thioether N-14): the IC50 turned out to be 17.5 nM.
Turning to `CCCCCCN1CC(=O)N[C@@H](Cc2ccc(O)cc2)C(=O)N[C@@H](CCCC)C(=O)N[C@@H](CC(=O)O)C(=O)N[C@@H](CCCNC(=N)N)C(=O)N[C@@H](CC(C)C)C(=O)N[C@@H](CCCCC)C(=O)N2CCC[C@H]2C(=O)N[C@@H](C(C)C)C(=O)N[C@@H](CC(=O)O)C(=O)N[C@H](C(=O)NC(CC(=O)O)C(N)=O)CSCC(=O)N[C@@H](Cc2ccccc2)C(=O)N[C@@H](Cc2cccc(C)c2)C(=O)N[C@@H](CC(=O)O)C1=O` (stereo partly drawn) [compound 1327] ({CH2CO}-F[Phe(3-Me)]D[NHexGly]Y[Nle]DRL[Ahp(2)]PVDC[ξD]-NH2; thioether N-14), the IC50 amounted to 13.9 nM.
As for `CCCCCCN1CC(=O)N[C@@H](Cc2ccc(O)cc2)C(=O)N[C@@H](CC(C)C)C(=O)N[C@@H](CC(N)=O)C(=O)N[C@@H](CCCNC(=N)N)C(=O)N[C@@H](CC(C)C)C(=O)N[C@@H](CCCCC)C(=O)N2CCC[C@H]2C(=O)N[C@@H](C(C)C)C(=O)N[C@@H](C(C)C)C(=O)N[C@H](C(=O)NCC(=O)O)CSCC(=O)N[C@@H](Cc2ccccc2)C(=O)N[C@@H](Cc2cccc(C)c2)C(=O)N[C@@H](CC(=O)O)C1=O` [compound 1328] ({CH2CO}-F[Phe(3-Me)]D[NHexGly]YLNRL[Ahp(2)]PVVCG-OH; thioether N-14), the IC50 was 2 nM.

(Values after patent US20240218022A1, “ANTI-VISTA MACROCYCLIC PEPTIDES AND COMPOSITIONS” (BRISTOL-MYERS SQUIBB COMPANY, priority 2022, published 2024).)
